Measurements taken from PMC3966265, “Phosphorylation of Arabidopsis transketolase at Ser^428 provides a potential paradigm for the metabolic control of chloroplast carbon metabolism” (Biochemical Journal, 2014).

How the values were obtained:
Format in all cases: biochemical
[1] = target: T1, cpCKII (Arabidopsis thaliana, UniProt O64816); assay: […] phosphorylation of recombinant AtTKL1, SDS/PAGE autoradiogram; details: labelled compound; 10 mM MgCl2; pH 7.6; 22 °C; with calcium or EGTA
T1 construct: gene CKA4; mature form lacking N-terminal 85 residues; N-terminal GST fusion (pGEX4-T1) kept; E. coli
T1 sequence (O64816 86-432): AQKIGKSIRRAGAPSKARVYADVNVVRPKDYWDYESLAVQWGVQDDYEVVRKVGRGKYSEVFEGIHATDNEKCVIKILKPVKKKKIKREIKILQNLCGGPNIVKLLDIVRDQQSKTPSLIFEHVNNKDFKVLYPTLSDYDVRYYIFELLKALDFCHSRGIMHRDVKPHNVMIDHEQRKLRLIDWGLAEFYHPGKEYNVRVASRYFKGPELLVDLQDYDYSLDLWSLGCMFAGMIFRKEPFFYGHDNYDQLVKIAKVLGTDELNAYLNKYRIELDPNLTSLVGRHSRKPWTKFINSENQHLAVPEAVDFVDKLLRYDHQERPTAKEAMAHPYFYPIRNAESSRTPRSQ

[2] = target: T2, AtTKL1 (Arabidopsis thaliana, UniProt Q8RWV0, S428D); assay: coupled NAD reduction assay with E. coli E4PDH, A340; details: phosphomimetic mutant; 2 mM G3P; 0.1 mM TPP; 15 mM MgCl2; 5 mM CaCl2; pH 7.2 and 8.0; 30 °C
T2 construct: gene TKL-1; mature form lacking N-terminal 67 residues (chloroplast-targeting peptide); N-terminal intein tag cleaved; E. coli ER2566; 73 kDa; homodimer
T2 sequence (Q8RWV0 68-741 S428D): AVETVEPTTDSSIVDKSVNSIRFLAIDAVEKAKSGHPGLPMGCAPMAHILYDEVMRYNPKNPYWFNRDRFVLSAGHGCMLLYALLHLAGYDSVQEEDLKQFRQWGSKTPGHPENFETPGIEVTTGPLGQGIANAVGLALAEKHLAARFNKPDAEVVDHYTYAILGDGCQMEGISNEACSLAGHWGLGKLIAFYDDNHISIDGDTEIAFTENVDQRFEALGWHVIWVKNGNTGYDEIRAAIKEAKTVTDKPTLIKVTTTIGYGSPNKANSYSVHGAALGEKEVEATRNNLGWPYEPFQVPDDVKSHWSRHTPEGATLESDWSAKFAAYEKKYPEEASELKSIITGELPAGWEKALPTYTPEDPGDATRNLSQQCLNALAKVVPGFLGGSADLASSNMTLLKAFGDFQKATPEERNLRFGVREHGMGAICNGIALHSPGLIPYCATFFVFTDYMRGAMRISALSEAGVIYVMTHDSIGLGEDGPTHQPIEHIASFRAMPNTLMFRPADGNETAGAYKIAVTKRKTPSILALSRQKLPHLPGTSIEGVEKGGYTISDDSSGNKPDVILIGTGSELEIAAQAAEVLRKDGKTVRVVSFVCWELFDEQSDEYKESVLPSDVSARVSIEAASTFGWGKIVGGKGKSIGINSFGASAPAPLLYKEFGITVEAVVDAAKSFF

[3] = target: T3, AtTKL1 (Arabidopsis thaliana, UniProt Q8RWV0); assay: as above; details: 2 mM G3P; 0.1 mM TPP; 15 mM MgCl2; 5 mM CaCl2; pH 7.2 and 8.0; 30 °C
T3 construct: gene TKL-1; mature form lacking N-terminal 67 residues (chloroplast-targeting peptide); N-terminal intein tag cleaved; E. coli ER2566; 73 kDa; homodimer
T3 sequence (Q8RWV0 68-741): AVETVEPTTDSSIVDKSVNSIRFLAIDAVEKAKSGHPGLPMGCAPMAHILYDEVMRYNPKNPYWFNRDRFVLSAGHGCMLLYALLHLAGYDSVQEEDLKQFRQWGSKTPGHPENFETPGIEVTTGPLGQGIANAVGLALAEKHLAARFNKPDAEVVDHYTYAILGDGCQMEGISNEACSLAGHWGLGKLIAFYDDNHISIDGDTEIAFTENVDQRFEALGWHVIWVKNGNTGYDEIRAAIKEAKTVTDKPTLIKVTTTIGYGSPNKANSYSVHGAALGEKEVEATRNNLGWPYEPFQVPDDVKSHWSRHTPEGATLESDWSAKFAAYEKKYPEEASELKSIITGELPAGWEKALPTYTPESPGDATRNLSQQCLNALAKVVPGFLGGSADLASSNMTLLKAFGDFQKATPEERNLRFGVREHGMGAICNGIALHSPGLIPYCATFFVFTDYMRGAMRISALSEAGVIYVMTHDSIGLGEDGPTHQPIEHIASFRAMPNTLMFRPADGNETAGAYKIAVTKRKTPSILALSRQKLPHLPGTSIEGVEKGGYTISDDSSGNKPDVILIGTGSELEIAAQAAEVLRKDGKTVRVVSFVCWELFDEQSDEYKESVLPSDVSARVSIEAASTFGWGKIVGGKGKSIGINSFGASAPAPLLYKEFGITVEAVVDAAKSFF

Row | SMILES | 32P phosphorylation of recombinant AtTKL1, SDS/PAGE autoradiogram [1] | KmF6P [2] | KmF6P [3]
1 | Nc1nc2c(ncn2[C@@H]2O[C@H](COP(=O)(O)OP(=O)(O)OP(=O)(O)O)[C@@H](O)[C@H]2O)c(=O)[nH]1 [GTP] | recombinant cpCKII was able to utilize GTP | – | –
2 | Nc1ncnc2c1ncn2[C@@H]1O[C@H](COP(=O)(O)OP(=O)(O)OP(=O)(O)O)[C@@H](O)[C@H]1O [ATP] | cpCKII was able to phosphorylate recombinant AtTKL1 (Figure 2F, arrowheads) | – | –
3 | O=P(O)(O)OC[C@H]1OC(O)(CO)[C@@H](O)[C@@H]1O (stereo partly shown) [F6P] | – | higher KmF6P and VmaxF6P values compared with the phosphomimetic mutant | the wild-type enzyme had higher KmF6P and VmaxF6P values
